Literature values as cited in US20020193313A1, “Method of increasing the efficacy of chemotherapy in the treatment of tumors” (priority 2001, published 2002).

Assays:
various types of cancer = details: in vitro
[1] = system: advanced stages of different types of cancer; details: topotecan for S phase synchronization followed by doxorubicin
[2] = system: locally advanced breast cancer; details: Tamoxifen to induce cell phase arrest, then estrogen to stimulate growth, 43% without synchronization

For `Cc1c(N)nc([C@H](CC(N)=O)NC[C@H](N)C(N)=O)nc1C(=O)N[C@H](C(=O)N[C@H](C)[C@@H](O)[C@H](C)C(=O)N[C@H](C(=O)NCCc1nc(-c2nc(C(=O)NCCCN[C@@H](C)c3ccccc3)cs2)cs1)[C@@H](C)O)[C@@H](O[C@@H]1O[C@@H](CO)[C@@H](O)[C@H](O)[C@@H]1O[C@H]1O[C@H](CO)[C@@H](O)[C@H](OC(N)=O)[C@@H]1O)c1c[nH]cn1` [peplomycin], the cell cycle arrest (various types of cancer) is listed as “arrest the cell cycle”.
In the case of `CC/C=C\C/C=C\C/C=C\CCCCCCCC(=O)O` [alpha linoleic acid], the “effect on tumor growth” value (tumor growth) is listed as “stimulate tumor growth”.
For `C=C[C@H]1C[N@@]2CC[C@H]1C[C@@H]2[C@@H](O)c1ccnc2ccc(OC)cc12` [quinidine], the “phase of cell cycle arrest” value (in vitro breast cancer) is listed as “arrest of in vitro breast cancer in the G1 phase”.
In the case of `NC(Cn1ccc(=O)c(O)c1)C(=O)O` (stereo not shown) [mimosine], the “phase of cell cycle arrest” value (in vitro T-cell lymphoma) is listed as “arrest in the G1 phase”.
For `COC(=O)Nc1nc2ccc(C(=O)c3cccs3)cc2[nH]1` [nocodazole], the “phase of cell cycle arrest” value (in vitro T-cell lymphoma) is given as “arrest in the M-phase”.
In the case of `C[C@@]1(CO)[C@H](O)CC[C@@]2(C)[C@H]1CC[C@H]1C[C@@H]3C[C@@]12CC[C@]3(O)CO` [aphidicoline], the “phase of cell cycle arrest” value (in vitro T-cell lymphoma) is listed as “arrest late in the G1 phase”.
For epidermal growth factor, the “phase of cell cycle arrest” value (in vitro breast cancer) is given as “arrest of in vitro breast cancer in the G1 phase”.
For `CC[C@@]1(O)C(=O)OCc2c1cc1n(c2=O)Cc2cc3c(CN(C)C)c(O)ccc3nc2-1` [topotecan], the hematologic toxicity [1] is listed as “increased hematologic toxicity”.
For `NC(=O)NO` [hydrea], the “phase of cell cycle arrest” value (in vitro T-cell lymphoma) is listed as “arrest in the S phase”.
For `CC/C(=C(\c1ccccc1)c1ccc(OCCN(C)C)cc1)c1ccccc1` [Tamoxifen], the “patients whose tumors showed favorable response to phase specific chemotherapy” value [2] is given as “approximately 82%”.
